In PMC6433685, “Histone deacetylase inhibitor LMK235 attenuates vascular constriction and aortic remodelling in hypertension” (Journal of Cellular and Molecular Medicine, 2019):

Assays:
HDAC1 = target: T1, HDAC1 (Homo sapiens, UniProt Q13547); experiment: HDAC1 fluorogenic enzyme assay kit (BPS Bioscience), cell-free; type: biochemical; details: 0.001-10 μmol/L inhibitor
T1 construct: purchased BPS Bioscience 50061

HDAC9 = target: T2, HDAC9 (Homo sapiens, UniProt Q9UKV0); experiment: HDAC9 fluorogenic enzyme assay kit (BPS Bioscience), cell-free; type: biochemical; details: 0.001-10 μmol/L inhibitor
T2 construct: purchased BPS Bioscience 50069
T2 sequence (Q9UKV0 whole entry): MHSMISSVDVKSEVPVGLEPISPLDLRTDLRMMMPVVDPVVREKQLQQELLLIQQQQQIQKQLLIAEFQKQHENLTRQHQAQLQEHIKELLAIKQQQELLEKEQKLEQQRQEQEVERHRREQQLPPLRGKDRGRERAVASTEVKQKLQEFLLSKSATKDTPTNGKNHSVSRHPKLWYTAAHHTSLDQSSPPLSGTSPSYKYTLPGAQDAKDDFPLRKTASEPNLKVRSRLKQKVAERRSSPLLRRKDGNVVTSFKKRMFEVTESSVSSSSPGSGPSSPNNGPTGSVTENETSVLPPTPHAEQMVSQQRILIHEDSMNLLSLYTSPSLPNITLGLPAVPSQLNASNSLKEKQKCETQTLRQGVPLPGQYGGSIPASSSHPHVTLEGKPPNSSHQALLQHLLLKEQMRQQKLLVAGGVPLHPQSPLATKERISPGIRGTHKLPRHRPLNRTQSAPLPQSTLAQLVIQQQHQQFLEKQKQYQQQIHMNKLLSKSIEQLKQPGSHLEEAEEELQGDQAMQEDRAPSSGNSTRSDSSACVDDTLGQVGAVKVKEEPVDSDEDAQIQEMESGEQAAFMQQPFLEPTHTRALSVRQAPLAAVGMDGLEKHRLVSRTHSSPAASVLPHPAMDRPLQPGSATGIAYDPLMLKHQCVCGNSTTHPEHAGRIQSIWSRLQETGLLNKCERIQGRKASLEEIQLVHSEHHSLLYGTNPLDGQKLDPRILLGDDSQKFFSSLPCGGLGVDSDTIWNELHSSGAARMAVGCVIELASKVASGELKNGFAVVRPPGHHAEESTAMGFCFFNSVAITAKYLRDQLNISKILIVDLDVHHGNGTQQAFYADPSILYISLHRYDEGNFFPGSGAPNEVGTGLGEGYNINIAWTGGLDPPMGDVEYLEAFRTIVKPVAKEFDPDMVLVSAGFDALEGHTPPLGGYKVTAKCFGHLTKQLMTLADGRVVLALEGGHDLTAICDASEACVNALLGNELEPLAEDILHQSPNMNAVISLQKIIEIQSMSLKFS

HUVECs = experiment: Nitric oxide production in HUVECs (DAF-FM DA fluorescence); type: cell-based, Human; details: 1 μmol/L, 24 h
Procedure: (§1) A10 vascular smooth muscle cells (VSMCs) were incubated with Dulbecco's modified Eagle medium (DMEM) with 4500 mg/L glucose containing 10% foetal bovine serum (FBS). Passages were carried out every 2 or 3 days. VSMCs were maintained in DMEM in the presence of 10% FBS with low glucose (1000 mg/L). Human umbilical vein endothelial cells (HUVECs) were obtained from Gibco (Waltham, MA, USA). HUVECs were grown in an endothelial cell basal medium (EBM) with EGM‐2 bullet kit (Lonza, Walkersville, MD) and maintained at 37°C under 5% CO2. Cells were cultured for 5‐7 passages.
We used a nitric oxide‐sensitive fluorescence probe, 4‐amino‐5‐methylamino‐2′,7′‐difluorescein diacetate (DAF‐FM DA, Cayman), for nitric oxide detection. HUVECs were seeded on coverslips in 12‐well plates (1.5 × 10^5/mL). Cells, serum‐starved with EBM for 16 hour, were treated with LMK235 (1 μmol/L) or L‐NAME (250 μmol/L) for 24 hour and incubated with DAF‐FM DA (2.5 μmol/L) for 45 minutes. Next, the cells were fixed with 70% ethanol for 45 minutes and mounted using Prolog Gold antifade reagent and DAPI (Invitrogen, USA).

[1] = tested on: angiotensin II‐induced hypertensive mice; experiment: Systolic BP (tail-cuff) in angiotensin II-infusion mice; type: in vivo, CD‐1 mice; details: Ang II-infusion mice; 1 mg/kg/day i.p. for 7 days
Procedure: (§2) All animal procedures were approved by the Animal Experimental Committee of Chonnam National University Medical School (CNU IACUC‐H‐2014‐47) and carried out in accordance with the Guide for the Care and Use of Laboratory Animals (US National Institutes of Health Publications, 8th edition, 2011). CD‐1 mice (8 weeks old, 30‐35 g) were used in this study. Hypertension was induced by angiotensin II (Ang II, 1.3 mg/kg/day) infusion using 14‐day micro‐osmotic pumps (Alzet, model 1002; infusion rate of 0.25 μL/h) or saline alone. Ang II osmotic pumps were implanted subcutaneously after the injection of ketamine (120 mg/kg) and xylazine (6.2 mg/kg). One week after Ang II infusion, mice were administered LMK235 (1 or 3 mg/kg/day) or vehicle (dimethylsulphoxide [DMSO]) via intraperitoneal injection for 7 days. Mice were divided into three groups (n = 10‐12 per group): sham + vehicle, Ang II + vehicle, and Ang II + LMK235.
Systolic BP was measured by the tail‐cuff method (Visitech Systems, BP‐2000). Animals (mice and rats) were trained to allow for the measuring of BP before administration of the drug. Animals were trained to enter the holder at the same time more than three times a week to measure BP. For angiotensin II‐mice, systolic BP was measured when the mice were awake the day before they are killed. For SHRs, systolic BP was measured daily for 2 weeks.

rat aortic rings = experiment: Isometric tension: relaxation of U46619-induced contraction in rat aortic rings; set-up: species or system Sprague‐Dawley rats; details: U46619 30 nmol/L, LMK235 cumulative 0.1-100 μmol/L
From the text: Male Sprague‐Dawley rats were purchased from Orient Bio (Gyeonggi‐do, South Korea). The thoracic aortas and mesenteric arteries were excised and immersed in an ice‐cold, modified Krebs solution composed of NaCl (115 mmol/L), KCl (4.7 mmol/L), CaCl2 (2.5 mmol/L), MgCl2 (1.2 mmol/L), NaHCO3 (25 mmol/L), KH2PO4 (1.2 mmol/L) and dextrose (10 mmol/L). Mesenteric arteries are secondary branches of the main mesenteric trunk. The aortas and mesenteric arteries were cleaned by removing adherent connective tissue, soaked in the Krebs‐bicarbonate solution and cut into four ring segments (3.5 mm in length), as described previously.14 Some rings were denuded of endothelium by gently rubbing the internal surface with the edge of the forceps. Each aortic ring was suspended in a water‐jacketed organ bath (6 mL) maintained at 37°C and aerated with a mixture of 95% O2 and 5% CO2. Each ring was connected to an isometric force transducer (Danish Myo Technology, Skejbyparken, Aarhus N, Denmark). Rings were stretched to an optimal resting tension of 2.0 g, which was maintained throughout the experiment. Each ring was equilibrated in the organ bath solution for 90 minutes before the experiment involving the contractile response to 50 mmol/L of KCl addition. […]

HDAC2 = target: T3, HDAC2 (Homo sapiens, UniProt Q92769); experiment: HDAC2 fluorogenic enzyme assay kit (BPS Bioscience), cell-free; type: biochemical; details: 0.001-10 μmol/L inhibitor
T3 construct: purchased BPS Bioscience 50062
T3 sequence (Q92769 whole entry): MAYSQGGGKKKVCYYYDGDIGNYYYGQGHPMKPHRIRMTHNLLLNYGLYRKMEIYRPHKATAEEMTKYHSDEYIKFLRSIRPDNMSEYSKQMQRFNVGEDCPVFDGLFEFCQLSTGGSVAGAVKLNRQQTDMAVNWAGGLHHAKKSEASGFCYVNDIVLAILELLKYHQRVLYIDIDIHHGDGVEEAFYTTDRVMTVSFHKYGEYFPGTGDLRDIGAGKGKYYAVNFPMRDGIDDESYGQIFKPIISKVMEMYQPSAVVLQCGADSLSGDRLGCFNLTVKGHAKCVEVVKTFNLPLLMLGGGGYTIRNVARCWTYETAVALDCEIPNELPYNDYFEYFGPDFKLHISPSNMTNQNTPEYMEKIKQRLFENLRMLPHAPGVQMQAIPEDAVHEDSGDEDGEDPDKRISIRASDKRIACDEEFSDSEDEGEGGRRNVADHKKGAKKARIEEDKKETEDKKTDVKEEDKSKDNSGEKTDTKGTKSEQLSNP

[2] = tested on: cyclin D1, E2F3, p21, CaMKIIα mRNA; experiment: Cell cycle gene and CaMKIIα mRNA (qRT-PCR) in aortas of angiotensin II-infusion mice; type: in vivo; details: Ang II-infusion mice
Procedure: as §2
Total RNA from aortic tissue was isolated with TRIzol reagent (Invitrogen Life Technologies), and 1 μg of RNA was used for the reverse transcription reaction with TOPscript RT DryMIX (Enzynomics, South Korea). Quantification of mRNA levels was performed with the SYBR Green PCR kit (Enzynomics, South Korea).

[3] = tested on: angiotensin II‐infusion mice; experiment: Aortic wall thickness (H&E) in angiotensin II-infusion mice; type: in vivo; details: Ang II-infusion mice; 3 mg/kg/day for 1 week
Procedure: as §2
The paraffin‐embedded tissues were cut into 3‐μm‐thick sections, deparaffinized with xylene and then rehydrated with graded alcohol. Haematoxylin and eosin (H&E) staining was performed as described, with slight modifications.15 The arterial wall thickness was measured using NIS Elements Software (Nikon, Japan).

A10 cells = experiment: MTT cell viability assay in A10 cells; type: cell-based, rat; details: up to 1000 nmol/L, 24 hours
Procedure: as §1
Cell viability was tested by the MTT [3‐(4,5‐dimethylthiazol‐2‐yl)‐2,5‐diphenyl tetrazolium bromide] assay. A10 cells were seed into 24‐well culture dishes and serum‐starved overnight. Cells were treated with LMK235 or vehicle for 24 hours at the indicated concentrations. MTT reagent was added to the medium for 2 hours and then dissolved in DMSO, and the absorbance was measured at 570 nm. For assessing cell proliferation, A10 cells were transfected with pCMV‐SPORT6‐CaMKIIα in a dose‐dependent manner. The MTT assay was performed as described above.

HDAC7 = target: T4, HDAC7 (Homo sapiens, UniProt Q8WUI4); experiment: HDAC7 fluorogenic enzyme assay kit (BPS Bioscience), cell-free; type: biochemical; details: 0.001-10 μmol/L inhibitor
T4 construct: purchased BPS Bioscience 50067
T4 sequence (Q8WUI4 whole entry): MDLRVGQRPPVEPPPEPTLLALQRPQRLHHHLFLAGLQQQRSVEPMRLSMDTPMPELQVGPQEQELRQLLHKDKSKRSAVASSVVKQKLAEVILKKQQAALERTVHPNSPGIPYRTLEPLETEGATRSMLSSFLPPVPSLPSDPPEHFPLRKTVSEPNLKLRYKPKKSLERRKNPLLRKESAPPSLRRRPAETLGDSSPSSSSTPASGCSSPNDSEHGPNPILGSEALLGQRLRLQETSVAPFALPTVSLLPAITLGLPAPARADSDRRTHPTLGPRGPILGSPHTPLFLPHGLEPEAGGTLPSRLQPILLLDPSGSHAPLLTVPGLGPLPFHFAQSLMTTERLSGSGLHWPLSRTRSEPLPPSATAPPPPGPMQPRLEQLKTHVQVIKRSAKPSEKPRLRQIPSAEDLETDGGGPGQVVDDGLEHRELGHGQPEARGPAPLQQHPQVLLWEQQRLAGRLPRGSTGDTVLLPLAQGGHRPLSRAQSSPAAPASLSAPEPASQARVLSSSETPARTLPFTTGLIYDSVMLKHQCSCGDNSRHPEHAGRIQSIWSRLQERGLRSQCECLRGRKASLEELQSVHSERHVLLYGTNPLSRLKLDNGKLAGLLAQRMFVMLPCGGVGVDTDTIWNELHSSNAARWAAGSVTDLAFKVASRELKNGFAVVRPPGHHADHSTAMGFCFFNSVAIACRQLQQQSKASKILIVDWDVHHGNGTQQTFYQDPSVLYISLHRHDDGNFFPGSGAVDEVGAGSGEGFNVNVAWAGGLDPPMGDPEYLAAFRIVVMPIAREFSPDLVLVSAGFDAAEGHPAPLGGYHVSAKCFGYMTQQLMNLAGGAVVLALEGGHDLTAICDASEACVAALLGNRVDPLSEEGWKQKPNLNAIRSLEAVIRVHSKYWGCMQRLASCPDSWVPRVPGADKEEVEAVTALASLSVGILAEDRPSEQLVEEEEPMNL

T1 sequence (Q13547 whole entry): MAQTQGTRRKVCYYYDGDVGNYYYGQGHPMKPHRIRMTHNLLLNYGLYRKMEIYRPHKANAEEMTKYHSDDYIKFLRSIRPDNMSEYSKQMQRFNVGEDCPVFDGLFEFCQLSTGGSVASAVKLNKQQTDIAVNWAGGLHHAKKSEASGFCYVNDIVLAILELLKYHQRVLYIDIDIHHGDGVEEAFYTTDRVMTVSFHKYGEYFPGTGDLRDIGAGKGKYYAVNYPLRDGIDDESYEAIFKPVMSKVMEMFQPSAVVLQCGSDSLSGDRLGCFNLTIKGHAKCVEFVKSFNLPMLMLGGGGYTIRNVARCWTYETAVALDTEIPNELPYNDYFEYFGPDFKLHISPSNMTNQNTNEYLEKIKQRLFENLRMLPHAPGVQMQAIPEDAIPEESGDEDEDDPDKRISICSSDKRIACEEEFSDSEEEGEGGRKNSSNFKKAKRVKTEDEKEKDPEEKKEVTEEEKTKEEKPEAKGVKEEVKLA

In the case of `Cc1cc(C)cc(C(=O)NOCCCCCC(=O)NO)c1` [LMK235], the IC50 (HDAC1) is reported as 30 nM, the IC50 (HDAC9) is reported as greater than 20000 nM and the nitric oxide production (HUVECs) is reported as “increased nitric oxide production”. The “systolic BP” value [1] was “sufficient to lower systolic BP”, the U46619-induced vasoconstriction (rat aortic rings; endothelium-denuded aortic rings) was “inhibited” and the U46619-induced vasoconstriction (rat aortic rings; endothelium-intact aortic rings) was “dose dependently reduced”. For the same compound, the IC50 (HDAC2) was 55 nM, the “CaMKIIα mRNA levels in aorta” value [2] was “significantly reduced” and the “E2F3 mRNA levels in aorta” value [2] was “significantly suppressed”. For the same compound, the “cyclin D1 mRNA levels in aorta” value [2] was “significantly suppressed”, the “p21 transcript levels in aorta” value [2] was “restored the repressed p21 expression” and the aortic wall thickness [3] was “completely inhibited the increased aortic wall thickness”. The “cell viability (MTT)” value (A10 cells) was “not affected” and the IC50 (HDAC7) was greater than 20000 nM.
